This is an account of results in PMC3591093, “De novo modeling of the F420-reducing [NiFe]-hydrogenase from a methanogenic archaeon by cryo-electron microscopy” (eLife, 2013).

Assay [1] deals with T1, Frh complex (FrhABG), F420-reducing [NiFe]-hydrogenase (Methanothermobacter marburgensis, UniProt D9PYF6).
T1 construct: gene frhB; FrhA C-terminus after His386 removed in maturation; FrhG most probably starts at Val39 of the 275-residue annotation; FrhA 45, FrhG 26, FrhB 31 kDa; with Coenzyme F420 hydrogenase subunit alpha; Coenzyme F420 hydrogenase subunit gamma
T1 sequence (D9PYF6 1-281): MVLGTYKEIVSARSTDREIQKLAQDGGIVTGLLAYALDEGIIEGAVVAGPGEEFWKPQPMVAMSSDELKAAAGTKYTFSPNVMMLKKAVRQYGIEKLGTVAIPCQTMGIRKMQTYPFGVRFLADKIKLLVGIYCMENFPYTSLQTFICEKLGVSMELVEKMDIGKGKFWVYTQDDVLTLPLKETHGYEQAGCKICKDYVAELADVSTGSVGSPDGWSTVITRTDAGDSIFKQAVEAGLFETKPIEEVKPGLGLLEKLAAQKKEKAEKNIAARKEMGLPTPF
T1 sequence (D9PYF9 1-386 partner): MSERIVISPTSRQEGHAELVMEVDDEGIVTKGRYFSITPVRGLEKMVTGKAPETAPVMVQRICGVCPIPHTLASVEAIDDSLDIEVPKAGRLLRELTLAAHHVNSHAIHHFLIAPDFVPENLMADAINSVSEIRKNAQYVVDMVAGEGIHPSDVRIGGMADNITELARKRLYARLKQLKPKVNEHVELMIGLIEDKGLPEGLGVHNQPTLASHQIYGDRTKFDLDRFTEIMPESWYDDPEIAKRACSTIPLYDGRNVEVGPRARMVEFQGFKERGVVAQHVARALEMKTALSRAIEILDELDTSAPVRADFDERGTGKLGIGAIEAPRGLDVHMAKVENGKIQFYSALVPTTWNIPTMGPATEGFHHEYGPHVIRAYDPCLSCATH
T1 sequence (D9PYF7 40-275 partner): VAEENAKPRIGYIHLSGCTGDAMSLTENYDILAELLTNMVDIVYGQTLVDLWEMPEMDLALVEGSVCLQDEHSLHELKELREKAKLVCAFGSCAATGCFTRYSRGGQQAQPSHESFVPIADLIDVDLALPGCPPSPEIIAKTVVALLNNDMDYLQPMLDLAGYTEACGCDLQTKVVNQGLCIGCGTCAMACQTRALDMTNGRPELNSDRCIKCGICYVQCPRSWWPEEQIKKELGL
The experiment in a line: cryo-EM structure (map with versus without F420). Type of assay: binding. As to conditions: 0.5, 1.0 or 10 mM F420, oxygen-free; site in FrhB next to FAD isoalloxazine; only the isoalloxazine-like ring modelled, weak density.

The target of assay [2] is T1, Frh complex (FrhABG), F420-reducing [NiFe]-hydrogenase. Put plainly: cryo-EM structure. Format: binding. Conditions: 25 uM FAD in purification buffers; site in FrhB near the [4Fe-4S] cluster; ribose and ribitol density missing.

Consider `C[C@H](OP(=O)(O)OC[C@@H](O)[C@@H](O)[C@@H](O)Cn1c2nc(=O)[nH]c(=O)c-2cc2ccc(O)cc21)C(=O)N[C@@H](CCC(=O)N[C@@H](CCC(=O)O)C(=O)O)C(=O)O` [F420], for which the “cryo-EM structure (map with versus without F420)” value in assay [1] is recorded as “We conclude that it represents the isoalloxazine ring of the F420 substrate”.

Regarding `Cc1cc2nc3c(=O)[nH]c(=O)nc-3n(C[C@H](O)[C@H](O)[C@H](O)COP(=O)(O)OP(=O)(O)OC[C@H]3O[C@@H](n4cnc5c(N)ncnc54)[C@H](O)[C@@H]3O)c2cc1C` [FAD], the cryo-EM structure entry in assay [2] is given as “could be interpreted as the isoalloxazine ring of the FAD cofactor”.
